“Also recorded” adds a separate entry of the source.
Tests used:
[1] = tested on: T. brucei Lister 427 bloodstream forms; assay: Resazurin-based anti-T. brucei assay; type: cell-based, Trypanosoma brucei; settings: 72 h; for T. brucei % of Activity ± ST.DEV (Single Dose 20 μM): single dose 20 μM, no activity = less than 20%
Description: (§1) The antiparasitic activity of compounds 2c–g, 3a, 5a and 7 was evaluated at a single concentration of 20 μM, against Trypanosoma brucei (T. brucei) and Leishmania infantum (L. infantum) promastigotes. The results are shown in Table 9 together with the cytotoxicity data (CC50) in THP-1–derived macrophages cells.
T. brucei Lister 427 bloodstream forms were grown in a humidified incubator at 37 °C, 5% CO2 in complete HMI-9 medium 1 supplemented with 10% heat-inactivated Fetal Bovine Serum (FBS) and 100 UI/mL penicillin/streptomycin. Parasites maintenance was performed in T25 ventilated flasks by subpassage at a concentration of 1 × 10^4/mL every 2 days on T25 ventilated flasks.
The efficacy of compounds against T. brucei bloodstream forms was evaluated using a modified resazurin-based assay previously described in the literature. Parasites were added to 100 µL of serial dilutions of compounds in supplemented complete medium at a cell density of 5 × 10^3/mL for. As a quality control, a dose–response curve for the antitrypanosomal pentamidine was included in all the assays. The final volume of the assay is 200 µL/well. Each condition was carried out in duplicate. Following 72 h incubation at the specific conditions for T. brucei, 20 µL of a 0.5 mM resazurin solution was added and plates were incubated for a further 4 h under the same conditions. Fluorescence was measured at 544 nm and 590 nm excitation and emission wavelength, respectively, using a Synergy 2 Multi-Mode Reader (Biotek, Winooski, VT, USA). Results were shown as % of parasite growth inhibition compared to control (untreated parasites) and represent the average of at least three independent experiments. The effect was evaluated by the determination of the IC50 value (concentration required to inhibit growth in 50%) and calculated by non-linear regression curves using GraphPad Prism version 8.1.1 for Windows (GraphPad Software, San Diego CA, USA).

[2] = tested on: L. infantum MHOM/MA/67/ITMAP-263 promastigotes; assay: Resazurin-based assay against L. infantum promastigotes; type: cell-based, Leishmania infantum; settings: 72 h; for L. infantum % of Activity ± ST.DEV (Single Dose 20 μM): single dose 20 μM, no activity = less than 20%
Description: as §1
L. infantum MHOM/MA/67/ITMAP-263 promastigotes forms were grown at 27 °C, in complete RPMI-1640 medium supplemented with 10% heat-inactivated Fetal Bovine Serum (FBS), 2 mM L-glutamine, 100 UI/mL penicillin/streptomycin, 20 mM HEPES. Parasites maintenance was performed in T25 non-ventilated flasks by subpassage at a concentration of 1 × 10^6/mL every 5 days on T25 non-ventilated flasks.
The compounds’ efficacy against L. infantum promastigotes was evaluated using a resazurin-based assay. Parasites were added to 100 µL of serial dilutions of compounds in supplemented complete medium at a cell density of 5 × 10^5/mL. As a quality control, a dose–response curve to the antileishmanial drug miltefosine was included in all the assays. The final volume of the assay was 200 µL/well. Each condition was carried out in duplicate. Following 72 h of incubation at the specific conditions for L. infantum, 20 µL of a 0.5 mM resazurin solution was added, and the plates were incubated for a further 4 h under the same conditions. The methodology to obtain the results was the same described in Section 3.2.2. for T. brucei.

[3] = MTT cytotoxicity in THP-1-derived macrophages; type: cell-based, human; settings: human, THP-1-derived macrophages (PMA-differentiated); MTT, 72 h, tested 100 to 12.5 μM; read-out: CC50 Interval in THP-1-Derived Macrophages
Description: (§2) Human leukemia cell line, THP-1 (ATCC® TIB-202™, Manassas, VA, USA) was cultured in RPMI-1640 medium supplemented with 10% heat-inactivated Fetal Bovine Serum (FBS), 2 mM L-glutamine, 100 UI/mL penicillin/streptomycin, 20 mM HEPES. The cell line was maintained in a humidified incubator at 37 °C and 5% CO2 by subculture every three days in 20 mL of media at a concentration of 1 × 10^5/mL in a T75 flask. All cell culture reagents were purchased from Lonza-Bioscience (Morrisville, NC, USA).
(§3) The cytotoxicity effect of compounds on THP-1-derived macrophages was assessed by the colorimetric MTT assay (3-(4,5-dimethylthiazol-2-yl)-2,5-diphenyl tetrazolium bromide). Briefly, THP-1 cells were suspended in RPMI complete medium at a density of 1 × 10^6 cells/mL and 100 μL/well were seeded in a 96-well plate and were differentiated into macrophages by addition of 40 ng/mL of phorbol-myristate 13-acetate (PMA, Sigma, Saint Louis, MI, USA) for 24 h followed by replacement with fresh medium for more 24 h. Subsequently, cells were incubated with 100 μL of compounds ranging from 100 to 12.5 μM after dilution in the RPMI complete medium. Each condition was carried out in quadruplicate. After 72 h of incubation at 37 °C 5% CO2, the medium was removed and 200 μL of 0.5 mg/mL MTT solution diluted in RPMI was added. Plates were incubated for an additional 4 h. Then 160 μL of media was removed and the same volume of 2-propanol was added. Absorbance was read at 570 nm using a Synergy 2 Multi-Mode Reader (Biotek, Winooski, VT, USA). Cytotoxicity was evaluated by the determination of the CC50 value (drug concentration that reduced the percentage of viable cells in 50%) and calculated by non-linear regression analysis using GraphPad Prism version 8.1.1 for Windows (GraphPad Software, San Diego, CA, USA). The results represent the average of at least three independent experiments. For each compound, the Selectivity Index (SI) was calculated as the ratio between cytotoxicity in THP-1 (CC50, 72 h) and activity against parasites (IC50, 72 h).

[4] = tested on: CaCo-2 (colorectal adenocarcinoma) cells; assay: SRB cell growth inhibition assay, CaCo-2; type: cell-based, human; settings: Homo sapiens, Caco-2, 72 h, mean ± standard deviation
Description: (§4) The antitumor potential of the Sonogashira coupling products 2, tricyclic lactones 3 and 5, and tetracyclic lactones 7 was evaluated using the sulforhodamine B (SRB) assay against five human tumor cell lines: colorectal adenocarcinoma (CaCo-2), breast adenocarcinoma (MCF-7), gastric adenocarcinoma (AGS), cervical carcinoma (HeLa), and non-small cell lung cancer (NCI-H460). A primary pig liver cell culture (PLP2) was used to assess the toxicity of compounds.
(§5) The human tumor cell lines used were CaCo-2 (colorectal adenocarcinoma), MCF-7 (breast adenocarcinoma), AGS (gastric adenocarcinoma), HeLa (cervical carcinoma), NCI-H460 (lung carcinoma). Non-tumor cell lines were also tested: PLP2 (primary pig liver culture). All the cell lines were maintained in RPMI-1640 medium supplemented with 10% fetal bovine serum, glutamine (2 mM), penicillin (100 U/mL), and streptomycin ([…]), with the exception of PLP2, which was maintained in DMEM medium supplemented with fetal bovine serum (10%), glutamine and antibiotics. The culture flasks were incubated at 37 °C and with 5% CO2, under a humid atmosphere. The cells were used only when they had 70 to 80% confluence. A known mass of each compound was dissolved in DMSO/H2O (1:1, 1 mL), in order to obtain the stock solutions with a concentration of 1 mM. […] Each compound concentration (10 μL) was incubated with the cell suspension (190 μL) of the cell lines tested in 96-well microplates for 72 h. The microplates were incubated at 37 °C and with 5% CO2 in a humid atmosphere after checking the adherence of the cells. All cell lines were tested at a concentration of 10,000 cells/well. After the incubation period, the cells were treated: TCA (10% w/v; 100 μL) was previously cooled, and plates were incubated for 1 h at 4 °C, washed with water, and, after drying, a SRB solution (0.057%, m/v; 100 μL) was added and left to stand at room temperature for 30 min. To remove non-adhered SRB, plates were washed three times with a solution of acetic acid (1% v/v) and placed to dry. Finally, an adhered SRB was solubilized with Tris (10 mM, 200 μL) and the absorbance at a wavelength of 540 nm was read in the Biotek ELX800 microplate reader. The results obtained by the SRB assay were expressed regarding the concentration compounds that can inhibit cell growth by 50%—GI50. Doxorubicin was used as a positive control.

[5] = tested on: MCF-7 (breast adenocarcinoma) cells; assay: SRB cell growth inhibition assay, MCF-7; type: cell-based, human; settings: Homo sapiens, MCF7, 72 h, mean ± standard deviation
Description: as §4, §5

[6] = tested on: AGS (gastric adenocarcinoma) cells; assay: SRB cell growth inhibition assay, AGS; type: cell-based; settings: Homo sapiens, 72 h, mean ± standard deviation
Description: as §4, §5

[7] = tested on: HeLa (cervical carcinoma) cells; assay: SRB cell growth inhibition assay, HeLa; type: cell-based; settings: Homo sapiens, 72 h, mean ± standard deviation
Description: as §4, §5

[8] = tested on: NCI-H460 (non-small cell lung cancer) cells; assay: SRB cell growth inhibition assay, NCI-H460; type: cell-based; settings: Homo sapiens, 72 h, mean ± standard deviation
Description: as §4, §5

[9] = SRB assay, toxicity in non-tumor PLP2 cells; type: cell-based, pig; settings: PLP2 primary pig liver cells (non-tumor); non-tumor primary pig liver cells, SRB assay, 72 h, mean ± standard deviation
Description: as §4, §5

[10] = tested on: THP-1-derived macrophages; assay: MTT cytotoxicity in THP-1-derived macrophages; type: cell-based, human
Description: as §2, §3

Row | GI50 [4] | GI50 [5] | GI50 [6] | GI50 [7] | GI50 [8] | IC50 ([2]; Leishmania infantum, dose-response) | IC50 ([1]; dose-response) | T. brucei IC50 ([1]; dose-response) | IC50 ([1]; Trypanosoma brucei, dose-response) | SMILES | T. brucei % of Activity ± ST.DEV (Single Dose 20 μM) [1] | L. infantum % of Activity ± ST.DEV (Single Dose 20 μM) [2] | CC50 at 72 h [3] | GI50 at 72 h [9] | cytotoxicity in THP-1-derived macrophages (in words) [10]
1 | – | – | – | – | – | – | – | – | – | O=c1oc(-c2ccc(C(F)(F)F)cc2)c(-c2ccc(C(F)(F)F)cc2)c2c1sc1nc3ccccc3cc12 [Compound 7e, 3,4-Bis(4-(trifluoromethyl)phenyl)-1H-pyrano[4’,3’:4,5]thieno[2,3-b]quinolin-1-one] | no activity * | no activity * | 25 to 50 µM | – | –
2 | 30.7 ± 2.35 µM | 60 ± 3.19 µM | 46.1 ± 1.77 µM | 36.4 ± 2.85 µM | 62.1 ± 3.05 µM | – | – | – | – | COC(=O)c1sc2nccnc2c1C#Cc1ccsc1 [Compound 2g, Methyl 7-(thiophen-3-ylethynyl)thieno[2,3-b]pyrazine-6-carboxylate] | no activity * | no activity * | > 100 µM | 90.5 ± 6.47 µM | –
3 | 91.1 ± 2.46 µM | 101 ± 7.33 µM | 99.8 ± 4.94 µM | 82.8 ± 8.02 µM | 109 ± 9.16 µM | 19 µM | – | – | – | CCCCc1oc(=O)c2sc3nc4ccccc4cc3c2c1CCCC [Compound 7b, 3,4-Dibutyl-1H-pyrano[4′,3′:4,5]thieno[2,3-b]quinolin-1-one] | no activity * | – | 12.5 to 50 µM | > 125 µM | –
4 | 41.7 ± 1.02 µM | 52.6 ± 3.18 µM | 36.3 ± 1.47 µM | 35.8 ± 2.08 µM | 51.5 ± 4.18 µM | – | 10.8 µM | low μM range | < 11 µM | O=c1oc(-c2ccccc2)c(Cl)c2c1sc1nccnc12 [Compound 5a, 9-Chloro-8-phenyl-6H-pyrano[4′,3′:4,5]thieno[2,3-b]pyrazin-6-one] | – | – | 50 to 100 µM | 66.8 ± 3.58 µM | some level of toxicity; also recorded: some degree of cytotoxicity
5 | 52.1 ± 0.89 µM | 51.8 ± 1.07 µM | 70.7 ± 4.72 µM | 48.3 ± 1.66 µM | 67.2 ± 3.05 µM | – | – | – | – | COC(=O)c1sc2nccnc2c1C#Cc1ccc(F)cc1 [Compound 2c, Methyl 7-[(4-fluorophenyl)ethynyl]-thieno[2,3-b]pyrazine-6-carboxylate] | no activity * | no activity * | > 100 µM | > 125 µM | –
6 | 93 ± 7.23 µM | 95.8 ± 8.08 µM | 89.2 ± 5.33 µM | 76.9 ± 6.55 µM | 102 ± 8.13 µM | – | – | – | – | COC(=O)c1sc2nccnc2c1C#Cc1ccc(C)cc1 [Compound 2e, Methyl 7-(p-tolylethynyl)thieno[2,3-b]pyrazine-6-carboxylate] | – | no activity * | > 100 µM | > 125 µM | –
7 | 75 ± 4.49 µM | 97.9 ± 6.31 µM | 93.5 ± 5.37 µM | 78.9 ± 6.06 µM | 93.9 ± 3.18 µM | – | – | – | – | O=c1oc(-c2ccccc2)c(-c2ccccc2)c2c1sc1nc3ccccc3cc12 [Compound 7a, 3,4-Diphenyl-1H-pyrano[4′,3′:4,5]thieno[2,3-b]quinolin-1-one] | – | no activity * | < 12.5 µM | > 125 µM | –
8 | 79.5 ± 3.58 µM | 67.9 ± 2.47 µM | 59.3 ± 1.97 µM | 62.3 ± 2.98 µM | 82.5 ± 5.35 µM | – | – | – | – | COC(=O)c1sc2nccnc2c1C#Cc1ccc(OC)cc1 [Compound 2d, Methyl 7-[(4-methoxyphenyl)ethynyl]thieno[2,3-b]pyrazine-6-carboxylate] | no activity * | no activity * | > 100 µM | > 125 µM | –
9 | 90 ± 3.29 µM | 91.2 ± 8.71 µM | 88.6 ± 5.08 µM | 75.2 ± 6.72 µM | 97.8 ± 6.14 µM | – | – | – | – | COc1ccc(-c2oc(=O)c3sc4nc5ccccc5cc4c3c2-c2ccc(OC)cc2)cc1 [Compound 7d, 3,4-Bis(4-methoxyphenyl)-1H-pyrano[4′,3′:4,5]thieno[2,3-b]quinolin-1-one] | no activity * | no activity * | < 12.5 µM | > 125 µM | –

Source: PMC12073635, “Synthesis of Tricyclic and Tetracyclic Lactone Derivatives of Thieno[2,3-b]pyrazine or Thieno[2,3-b]quinoline: Preliminary Antitumor and Antiparasitic Activity Evaluation” (Molecules, 2025)
